Patent US20260060947A1 (INSTITUT PASTEUR DE MONTEVIDEO, priority 2019, published 2026)
“Also recorded” adds a separate entry of the source.

What was measured:
NF-κB [1] = assay: LPS-induced NF-κB-dependent gene expression in THP-1 cells (qPCR); format: cell-based, Human; details: 30 μM for 2 hs, then LPS 100 ng/mL
Protocol: The effect of BANA or BA over NF-κB-dependent gene expression was studied by qPCR using THP-1 cells. THP-1 cells were differentiated into macrophages and treated with BANA (30 μM) or BA (30 μM) for 2 hs, followed by stimulation with LPS (100 ng/mL, for 3-4 h).
TNFα, CCL2, IL6 and IL-1β expression was analyzed by RT-PCR. Real-time PCR analysis was conducted as follows: Total mRNA was extracted from THP-1 cells to quantify TNFα, IL-6 and MCP-1-fold change gene expression over control (β-actin) by qPCR assay. Purified RNA was transcripted to cDNA using Superscript II Reverse Transcriptase with Oligo (dT). The cDNA for real-time PCR was obtained with a Piko 24 Thermal Cycler (Thermo Scientific). mRNA expression analysis was calculated using the ddCt method with β-Actin as the house keeping gene. SYBR Green was used as DNA binding dye and the qRT-PCR was done in an Eco Illumina thermocycler. Human primers sequences were used for THP-1 cells: […]

IL-1β = IL-1β in peritoneum and plasma of LPS-injected mice (ELISA); format: in vivo; details: 50 mg/kg IP 1 h before LPS 10 mg/kg, measured 3 h later, compared to vehicle and BA
Protocol: BANA (50 mg/kg), BA (50 mg/kg) or vehicle, were intraperitoneally (IP) injected 1 h before LPS intraperitoneal administration (10 mg/kg). 3 h later, IL-1β levels were measured in the peritoneum and plasma by ELISA.
In turn, BANA was able to reduce IL-1β concentration in plasma and peritoneum of mice intraperitoneally injected with LPS respect to controls (FIGS. 8A-1 and 8A-2). BANA (50 mg/kg), BA (50 mg/kg) or vehicle, were intraperitoneally (IP) injected 1 h before LPS intraperitoneal administration (10 mg/kg). 3 h later, IL-1β levels were measured in the peritoneum and plasma by ELISA. […] All data are expressed as mean±SEM; data were analyzed by Ordinary one-way ANOVA followed by Tukey's multiple comparisons test, ***p=0.0002 ****p<0,0001. n=3 animals per condition.

NF-κB-p65 [2] = assay: LPS-induced NF-κB-p65 nuclear translocation in SOD1^G93A primary microglia; format: cell-based, rat; details: BANA 10-30 μM before LPS
Protocol: FIG. 8D: Confocal images show CD11b-positive SOD1^G93A primary microglia (grey) treated with BANA, BA or vehicle, before LPS stimulation. […] Nuclear NF-κB-p65 colocalizing with DAPI nuclear staining is denoted in yellow.
Nuclear NF-κB-p65 colocalizing with DAPI nuclear staining is denoted in yellow. […] Scale bar=20 μm. […] 2 replicates of 3 independent experiments.
The effects of BANA on LPS- or TNFα-induced NF-κB activation were also assayed in cell cultures of BV2 microglial cell line and primary adult microglia isolated from symptomatic SOD1^G93A rats, and HT-29 NF-κB reporter cell line, respectively.

inflammasome = assay: LPS/ATP-induced inflammasome activation in BV2 cells (western blot of IL-1β); format: cell-based, murine; details: treatment in second signal (ATP), compared to vehicle or sodium benzoate
Protocol: FIG. 3B: For inflammasome activation, BV2 cells were treated with LPS and ATP. BANA or B.A treatment was performed in second signal (ATP). Presence of pro-IL1β in cell lysates (CL) and cleaved IL-1β in supernatants (SN) was determined by western blot analysis. […] All data are expressed as mean±SEM.

NF-κB [3] = assay: LPS-induced NF-κB activation in NF-κB-RE-Luc reporter mouse; format: in vivo; details: intraperitoneal, 2 h before LPS; BANA 10, 20 and 30 mg/kg; BA 30 mg/kg; DMF 30 mg/kg
Protocol: To determine whether BANA was capable of preventing LPS-induced NF-κB activation, intraperitoneal administration of BANA (10, 20, and 30 mg/kg) were followed by LPS intraperitoneal administration to an NF-κB-reporter transgenic mouse.

NF-κB-p65 [4] = assay: LPS-induced NF-κB-p65 nuclear translocation in BV2 cells (immunocytochemistry); format: cell-based, murine; details: BANA 10, 20, 30 μM, BA 30 μM or DMF for 3 hrs before LPS 100 ng/ml
Protocol: The effect of BANA on nuclear translocation of NF-κB was studied by immunocytochemistry using murine microglia cell line BV2.
Cells were then treated with BANA (10, 20 and 30 μM) or B.A (30 μM) for 3 hrs. After treatment, cells were stimulated with LPS (100 ng/ml) for 30 minutes. Then, cells were washed and fixed with PFA 4% for 20 minutes at 4° C. and washed with PBS. Immunocytochemistry was performed as follows: cells were permeabilized using 0.5% Triton in PBS for 15 minutes, and then blocked using 5% of BSA for 1 h at room temperature. Rabbit anti-NF-κB-p65 (ab16502, 1/200) and mouse anti-CD11b (BD550219, 1/100) were incubated overnight at 4° C. After that, primary antibodies were removed, washed with PBS 3 times for 10 minutes, and Alexa-fluor-conjugated goat anti-rabbit or goat anti-mouse antibodies (1:1000) were incubated for 2 h at room temperature. After secondary antibodies were removed, cells were covered in glycerol mounting medium with 1/2000 DAPI staining. Cells were analyzed by confocal microscopy using a confocal ZEISS LSM 800. NF-κB-p65+ nuclei were counted and ratio of DAPI to NF-κB-p65 labeling was compared among groups. Data were analyzed using analyzing tools of ImageJ and GraphPad Prism 7 software.

[5] = LC50 in cell culture of SOD1^G93A adult microglia; format: cell-based; details: rat

O=C(O)c1ccc(/C=C/[N+](=O)[O-])cc1 [BANA, (E)-4-(2-nitrovinyl) benzoic acid]
levels of mRNA coding for TNFα, MCP-1 and IL-6 (NF-κB [1]): potently prevented; also recorded: abrogated
IL-1β concentration in plasma (IL-1β): significantly reduces
IL-1β concentration in the peritoneum (IL-1β): significantly reduces
LPS-induced NF-κB-p65 nuclear translocation (NF-κB-p65 [2]): inhibits; also recorded: potently prevented
LPS/ATP-induced inflammasome activation (release of IL-1β adjusted to pro-IL-1β) (inflammasome): inhibited
LPS-induced NF-κB activation in vivo (NF-κB [3]): significantly decreased; also recorded: significantly inhibited
LPS-induced NF-κB-p65 nuclear translocation (NF-κB-p65 [4]): potently prevented; also recorded: inhibits
CC50 [5]: 30 µM
